Source: US20250222109A1, “STRUCTURED LIPID COMPOSITIONS” (Universität Bern, priority 2022, published 2025)

Legend:
[1] = SAXS phase identification of MLO-water mesophases (TIF-Gel); type: physicochemical; conditions: 10% w/w of drug; lamellar at room temperature, cubic (Ia3d) at 38° C.
Method: SAXS measurements were used to determine the phase identity and symmetry of the produced LMPs. Measurements were performed on a Bruker AXS Micro, with a microfocused X-ray source, operating at voltage and filament current of 50 kV and 1000 μA, respectively. The Cu Kα radiation (λCu Kα=1.5418 Å) was collimated by a 2D Kratky collimator, and the data were collected by a 2D Pilatus 100K detector. The scattering vector Q=(4π/λ) sin θ, with 2θ being the scattering angle, was calibrated using silver behenate. Data were collected and azimuthally averaged using the Saxsgui software to yield 1D intensity vs. scattering vector Q, with a Q range from 0.001 to 0.5 Å^−1. For all measurements the samples were placed inside a stainless-steel cell between two thin replaceable mica sheets and sealed by an O-ring, with a sample volume of 10 μL and a thickness of ˜1 mm. Measurements were performed at 25° C., 30° C., 34° C., 36° C. and 38° C. Samples were equilibrated for 10 min before measurements whereas scattered intensity was collected over 30 min and over 60 min in case of lamellar phase. On the other hand, for the kinetic study, the sample was pre equilibrated at 25° C. and inserted in the sample holder kept at 38° C. and the scattered intensity collected over 5 min. To determine the structural parameters such as the size of the water channels, SAXS data information on the lattice were combined with the composition of the samples (R. Mezzenga, et al., Shear rheology of lyotropic liquid crystals: a case study, Langmuir 21, 3322-3333 (2005)).
MLO was used as the lipid component of the mesophases and mixed with weighed amounts of drugs (10% w/w) in sealed Pyrex tubes and alternatively centrifuging (10 min, 5000 g) several times at room temperature until a homogenous mixture was obtained. The mesophase was then equilibrated for 48 h at room temperature in the dark (see, FIGS. 1A and 1B).
Firstly, small angle X-ray scattering (SAXS) measurements were used to determine the optimal amount of water needed to obtain a lamellar phase which provides a transition to a cubic at 38° C. (FIGS. 2B and 2C). The X-ray beam directed at the gel results in a scattering pattern with a set of maxima, that correspond to sharp Bragg reflections characteristic of the long-range positional order. The sequence of Bragg reflections (and their ratio; listed in FIG. 2A) identifies the symmetry of the mesophase studied (See also FIGS. 1A and 1B).

T cell transfer colitis = experiment: T-cell transfer colitis; type: in vivo, mice; conditions: colonoscopy, day 19 post T cell application

## C=CC[C@@H]1/C=C(\C)C[C@H](C)C[C@H](OC)[C@H]2O[C@@](O)(C(=O)C(=O)N3CCCC[C@H]3C(=O)O[C@H](/C(C)=C/[C@@H]3CC[C@@H](O)[C@H](OC)C3)[C@H](C)[C@@H](O)CC1=O)[C@H](C)C[C@@H]2OC [TAC, tacrolimus]
[1]
  effect of drug on phase identity and transition temperature of the gel: did not affect the phase identity and the transition temperature
T cell transfer colitis
  endoscopic signs of colitis: reduced endoscopic signs of colitis
